The results in this text go back to patent publication US20140058103A1, “Inhibitors of PI3K-Delta and Methods of Their Use and Manufacture” (Exelixis, Inc., priority 2010, published 2014).

The structures appear in SMILES notation. A value given as a limit tells only on which side of the number the result lay.

This assay addresses PI3K delta (Homo sapiens, UniProt O00329). Nature of the assay: Luciferase-coupled chemiluminescence kinase assay (ATP consumption, KinaseGlo). In kind it is biochemical. Here is the method: Kinase activity and compound inhibition were investigated using one or more of the assay formats described below. The ATP concentrations used in the various assays were approximately equal to or less than the KM for each of the respective kinases. Dose-response experiments were performed using an intra-plate dilution scheme with 10 different inhibitor concentrations in a 384-well microtiter plate. IC50 values were calculated by nonlinear regression analysis using the four-parameter equation listed below:
Y=min+(max−min)/(1+(X/IC50)^N) Equation 1
Typically N should approximate unity. Curve fitting was performed using XLFit or ActivityBase.
Kinase activity is measured as the percent of ATP consumed following the kinase reaction using luciferase-luciferin-coupled chemiluminescence. […] Kinase reactions were initiated by combining test compounds, kinase, and ATP in a 20 μL volume (6 μL volume for 1536-well plate). The reaction mixture was incubated at ambient temperature for 2 h. Following the kinase reaction, a 20 μL (or […] for 1536-well plate) aliquot of KinaseGlo (Promega) was added and the chemiluminescence signal measured using an EnVision plate reader (Perkin Elmer).

Chain of PI3K delta (O00329 whole entry): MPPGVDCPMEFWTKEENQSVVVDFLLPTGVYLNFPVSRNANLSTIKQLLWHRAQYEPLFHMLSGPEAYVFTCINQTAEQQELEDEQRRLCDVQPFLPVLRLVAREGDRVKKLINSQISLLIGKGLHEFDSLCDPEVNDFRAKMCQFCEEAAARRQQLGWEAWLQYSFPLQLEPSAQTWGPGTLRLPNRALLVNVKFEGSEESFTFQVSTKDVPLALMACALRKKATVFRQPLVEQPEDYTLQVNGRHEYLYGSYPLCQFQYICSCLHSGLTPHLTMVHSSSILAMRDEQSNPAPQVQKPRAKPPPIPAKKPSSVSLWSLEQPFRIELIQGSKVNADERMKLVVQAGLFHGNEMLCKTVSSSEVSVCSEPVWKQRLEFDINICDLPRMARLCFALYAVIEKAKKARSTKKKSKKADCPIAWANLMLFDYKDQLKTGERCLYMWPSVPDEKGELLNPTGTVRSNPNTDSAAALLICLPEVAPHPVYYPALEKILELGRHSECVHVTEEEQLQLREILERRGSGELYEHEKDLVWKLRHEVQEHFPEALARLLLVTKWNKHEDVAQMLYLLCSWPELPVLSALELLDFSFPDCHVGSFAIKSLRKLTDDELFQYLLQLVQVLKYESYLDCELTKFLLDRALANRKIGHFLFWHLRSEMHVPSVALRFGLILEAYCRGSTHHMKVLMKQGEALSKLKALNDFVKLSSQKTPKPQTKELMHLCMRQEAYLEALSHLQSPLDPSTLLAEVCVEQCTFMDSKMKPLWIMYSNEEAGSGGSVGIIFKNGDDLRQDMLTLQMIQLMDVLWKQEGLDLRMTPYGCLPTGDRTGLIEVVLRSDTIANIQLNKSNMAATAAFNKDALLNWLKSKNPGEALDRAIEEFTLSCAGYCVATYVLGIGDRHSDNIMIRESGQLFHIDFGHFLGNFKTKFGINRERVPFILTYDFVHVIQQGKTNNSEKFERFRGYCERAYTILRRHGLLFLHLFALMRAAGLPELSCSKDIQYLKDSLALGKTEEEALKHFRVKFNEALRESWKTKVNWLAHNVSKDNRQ
Chain of PI3K delta (P27986 whole entry partner): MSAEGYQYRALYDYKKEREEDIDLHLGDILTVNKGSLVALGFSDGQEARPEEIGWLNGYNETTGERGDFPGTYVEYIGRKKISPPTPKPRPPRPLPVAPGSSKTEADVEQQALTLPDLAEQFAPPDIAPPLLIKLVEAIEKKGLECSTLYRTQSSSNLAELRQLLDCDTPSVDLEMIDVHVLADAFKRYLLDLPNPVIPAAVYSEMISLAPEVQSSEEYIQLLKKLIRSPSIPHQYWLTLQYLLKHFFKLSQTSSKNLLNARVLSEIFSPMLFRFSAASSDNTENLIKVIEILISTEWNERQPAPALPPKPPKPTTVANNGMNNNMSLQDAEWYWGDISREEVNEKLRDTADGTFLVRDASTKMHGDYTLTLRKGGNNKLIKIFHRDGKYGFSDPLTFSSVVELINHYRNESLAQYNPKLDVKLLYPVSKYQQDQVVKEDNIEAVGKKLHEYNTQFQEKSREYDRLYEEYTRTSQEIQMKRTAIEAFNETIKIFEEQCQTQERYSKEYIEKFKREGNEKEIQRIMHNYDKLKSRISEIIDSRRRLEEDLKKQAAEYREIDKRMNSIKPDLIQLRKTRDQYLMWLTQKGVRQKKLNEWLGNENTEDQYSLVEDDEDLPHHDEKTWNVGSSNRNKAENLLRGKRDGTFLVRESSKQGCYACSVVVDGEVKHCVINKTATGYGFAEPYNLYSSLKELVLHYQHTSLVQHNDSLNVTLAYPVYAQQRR

`Cn1cc(-c2nc3c(N4CCC(CN)(c5ccccc5)CC4)ncnc3n2C)cn1` [Compound 1, 1-{1-[9-methyl-8-(1-methyl-1H-pyrazol-4-yl)-9H-purin-6-yl]-4-phenylpiperidin-4-yl}methanamine] gave an IC50 of 500 to 1500 nM.
`Cc1nc(-c2ccccc2)n(OCC2CCN(c3ncnc4c3nc(-c3cnn(C)c3)n4C)CC2)c1C` [Compound 2, 6-(4-(((4,5-Dimethyl-2-phenyl-1H-imidazol-1-yl)oxy)methyl)piperidin-1-yl)-9-methyl-8-(1-methyl-M-pyrazol-4-yl)-9H-purine] came in with a half-inhibitory concentration (IC50) of 500 to 1500 nM.
Next, `Cn1c(C(=O)NCC2CC2)nc2c(N3CCC(O)(c4ccccc4)CC3)ncnc21` [Compound 3, N-(cyclopropylmethyl)-6-(4-hydroxy-4-phenylpiperidin-1-yl)-9-methyl-9H-purine-8-carboxamide]: 50 to 250 nM; `Cn1c(C(=O)NCC2CCOCC2)nc2c(N3CCC(n4c(=O)[nH]c5ccccc54)CC3)ncnc21` [Compound 5, 9-methyl-6-[4-(2-oxo-2,3-dihydro-1H-benzimidazol-1-yl)piperidin-1-yl]-N-(tetrahydro-2H-pyran-4-ylmethyl)-9H-purine-8-carboxamide]: less than 50 nM.
Next, `Cn1c(C(=O)NCC2CC2)nc2c(N3CCC4(CC3)C(=O)Nc3ccccc34)ncnc21` [Compound 6, N-(Cyclopropylmethyl)-9-methyl-6-(2-oxo-1,2-dihydro-1′H-spiro[indole-3,4′-piperidin]-1′-yl)-9H-purine-8-carboxamide]: 50 to 250 nM.
Next, `CN(C)C(=O)c1nc2c(N3CCC4(CC3)C(=O)NCN4c3ccccc3)ncnc2n1C` [Compound 7, N,N,9-Trimethyl-6-(4-oxo-1-phenyl-1,3,8-triazaspiro[4.5]dec-8-yl)-9H-purine-8-carboxamide]: 500 to 1500 nM; `Cn1c(C(=O)N2CCCC2)nc2c(N3CCC4(CC3)C(=O)NCN4c3ccccc3)ncnc21` [Compound 8, 8-[9-methyl-8-(pyrrolidin-1-ylcarbonyl)-9H-purin-6-yl]-1-phenyl-1,3,8-triazaspiro[4.5]decan-4-one]: 250 to 500 nM.
On to `Cn1c(C(=O)N2CCCCC2)nc2c(N3CCC4(CC3)C(=O)NCN4c3ccccc3)ncnc21` [Compound 9, 8-[9-methyl-8-(piperidin-1-ylcarbonyl)-9H-purin-6-yl]-1-phenyl-1,3,8-triazaspiro[4.5]decan-4-one], for which the IC50 was in the range of 50 to 250 nM.
For `CN(C)C1CN(C(=O)c2nc3c(N4CCC5(CC4)C(=O)NCC5c4ccccc4)ncnc3n2C)C1` (stereo not drawn) [Compound 10] the value was 500 to 1500 nM; for `Cn1c(C(=O)NCC2CCCOC2)nc2c(N3CCC(n4c(=O)[nH]c5ccccc54)CC3)ncnc21` (stereo not drawn) [Compound 11, 9-methyl-6-[4-(2-oxo-2,3-dihydro-1H-benzimidazol-1-yl)piperidin-1-yl]-N-(tetrahydro-2H-pyran-3-ylmethyl)-9H-purine-8-carboxamide], 250 to 500 nM.
For `Cn1c(C(=O)NCC2(O)CC2)nc2c(N3CCC(n4c(=O)[nH]c5ccccc54)CC3)ncnc21` [Compound 12, N-[(1-hydroxycyclopropyl)methyl]-9-methyl-6-[4-(2-oxo-2,3-dihydro-1H-benzimidazol-1-yl)piperidin-1-yl]-9H-purine-8-carboxamide] the value was 50 to 250 nM.
Next, `Cn1c(C(=O)NCCCCO)nc2c(N3CCC4(CC3)C(=O)Nc3ccccc34)ncnc21` [Compound 13, N-(4-hydroxybutyl)-9-methyl-6-(2-oxo-1,2-dihydro-1′H-spiro[indole-3,4′-piperidin]-1′-yl)-9H-purine-8-carboxamide]: 50 to 250 nM; `Cn1c(C(=O)NC2CC2)nc2c(N3CCC4(CC3)C(=O)Nc3ccccc34)ncnc21` [Compound 14, N-cyclopropyl-9-methyl-6-(2-oxo-1,2-dihydro-1′H-spiro[indole-3,4′-piperidin]-1′-yl)-9H-purine-8-carboxamide]: 50 to 250 nM.
Regarding `Cn1c(C(=O)NC2CCC2)nc2c(N3CCC4(CC3)C(=O)Nc3ccccc34)ncnc21` [Compound 15, N-cyclobutyl-9-methyl-6-(2-oxo-1,2-dihydro-1′H-spiro[indole-3,4′-piperidin]-1′-yl)-9H-purine-8-carboxamide], the IC50 lay within 50 to 250 nM.
Compound `CCCCNC(=O)c1nc2c(N3CCC4(CC3)C(=O)Nc3ccccc34)ncnc2n1C` [Compound 16, N-butyl-9-methyl-6-(2-oxo-1,2-dihydro-1′H-spiro[indole-3,4′-piperidin]-1′-yl)-9H-purine-8-carboxamide] yielded an IC50 of 50 to 250 nM.
`Cn1c(C(=O)NCc2ccco2)nc2c(N3CCC4(CC3)C(=O)Nc3ccccc34)ncnc21` [Compound 17, N-(furan-2-ylmethyl)-9-methyl-6-(2-oxo-1,2-dihydro-1′H-spiro[indole-3,4′-piperidin]-1′-yl)-9H-purine-8-carboxamide]: the IC50 lay within 50 to 250 nM.
Next, `Cn1c(C(=O)NC2CCc3ccccc32)nc2c(N3CCC4(CC3)C(=O)Nc3ccccc34)ncnc21` (stereo not drawn) [Compound 18, N-(2,3-dihydro-1H-inden-1-yl)-9-methyl-6-(2-oxo-1,2-dihydro-1′H-spiro[indole-3,4′-piperidin]-1′-yl)-9H-purine-8-carboxamide]: 250 to 500 nM.
Next, `Cn1c(C(=O)NCCCO)nc2c(N3CCC4(CC3)C(=O)Nc3ccccc34)ncnc21` [Compound 19, N-(3-hydroxypropyl)-9-methyl-6-(2-oxo-1,2-dihydro-1′H-spiro[indole-3,4′-piperidin]-1′-yl)-9H-purine-8-carboxamide]: 50 to 250 nM.
Next, `Cn1c(C(=O)NCc2cccs2)nc2c(N3CCC4(CC3)C(=O)Nc3ccccc34)ncnc21` [Compound 20, 9-methyl-6-(2-oxo-1,2-dihydro-1′H-spiro[indole-3,4′-piperidin]-1′-yl)-N-(2-thienylmethyl)-9H-purine-8-carboxamide]: 50 to 250 nM.
With `Cn1c(C(=O)NCCc2ccccn2)nc2c(N3CCC4(CC3)C(=O)Nc3ccccc34)ncnc21` [Compound 21, 9-methyl-6-(2-oxo-1,2-dihydro-1′H-spiro[indole-3,4′-piperidin]-1′-yl)-N-(2-pyridin-2-ylethyl)-9H-purine-8-carboxamide], the IC50 is 500 to 1500 nM.
With `Cn1c(C(=O)NCc2ccncc2)nc2c(N3CCC4(CC3)C(=O)Nc3ccccc34)ncnc21` [Compound 22, 9-methyl-6-(2-oxo-1,2-dihydro-1′H-spiro[indole-3,4′-piperidin]-1′-yl)-N-(pyridin-4-ylmethyl)-9H-purine-8-carboxamide], the IC50 was in the range of 50 to 250 nM.
For `CC(NC(=O)c1nc2c(N3CCC4(CC3)C(=O)Nc3ccccc34)ncnc2n1C)c1ccccc1` (stereo not drawn) [Compound 23, 9-methyl-6-(2-oxo-1,2-dihydro-1′H-spiro[indole-3,4′-piperidin]-1′-yl)-N-(1-phenylethyl)-9H-purine-8-carboxamide] the value was 500 to 1500 nM; for `CC(C)NC(=O)c1nc2c(N3CCC4(CC3)C(=O)Nc3ccccc34)ncnc2n1C` [Compound 24, 9-methyl-N-(1-methylethyl)-6-(2-oxo-1,2-dihydro-1′H-spiro[indole-3,4′-piperidin]-1′-yl)-9H-purine-8-carboxamide], 50 to 250 nM.
Next, `Cn1c(C(=O)NCCO)nc2c(N3CCC4(CC3)C(=O)Nc3ccccc34)ncnc21` [Compound 25, N-(2-hydroxyethyl)-9-methyl-6-(2-oxo-1,2-dihydro-1′H-spiro[indole-3,4′-piperidin]-1′-yl)-9H-purine-8-carboxamide]: 250 to 500 nM; `COc1ccccc1CNC(=O)c1nc2c(N3CCC4(CC3)C(=O)Nc3ccccc34)ncnc2n1C` [Compound 26, 9-methyl-N-([2-(methyloxy)phenyl]methyl)-6-(2-oxo-1,2-dihydro-1′H-spiro[indole-3,4′-piperidin]-1′-yl)-9H-purine-8-carboxamide]: 500 to 1500 nM; `Cc1ccccc1CNC(=O)c1nc2c(N3CCC4(CC3)C(=O)Nc3ccccc34)ncnc2n1C` [Compound 27, 9-methyl-N-[(2-methylphenyl)methyl]-6-(2-oxo-1,2-dihydro-1′H-spiro[indole-3,4′-piperidin]-1′-yl)-9H-purine-8-carboxamide]: 500 to 1500 nM.
For `Cn1c(C(=O)NCc2cccc(F)c2)nc2c(N3CCC4(CC3)C(=O)Nc3ccccc34)ncnc21` [Compound 28, N-[(3-fluorophenyl)methyl]-9-methyl-6-(2-oxo-1,2-dihydro-1′H-spiro[indole-3,4′-piperidin]-1′-yl)-9H-purine-8-carboxamide] the value was 250 to 500 nM; for `COc1ccc(CNC(=O)c2nc3c(N4CCC5(CC4)C(=O)Nc4ccccc45)ncnc3n2C)cc1` [Compound 29, 9-methyl-N-([4-(methyloxy)phenyl]methyl)-6-(2-oxo-1,2-dihydro-1′H-spiro[indole-3,4′-piperidin]-1′-yl)-9H-purine-8-carboxamide], 500 to 1500 nM; for `Cn1c(C(=O)NCC(F)(F)F)nc2c(N3CCC4(CC3)C(=O)Nc3ccccc34)ncnc21` [Compound 30, 9-methyl-6-(2-oxo-1,2-dihydro-1′H-spiro[indole-3,4′-piperidin]-1′-yl)-N-(2,2,2-trifluoroethyl)-9H-purine-8-carboxamide], less than 50 nM.
`CC(CNC(=O)c1nc2c(N3CCC4(CC3)C(=O)Nc3ccccc34)ncnc2n1C)c1ccccc1` (stereo not drawn) [Compound 31, 9-methyl-6-(2-oxo-1,2-dihydro-1′H-spiro[indole-3,4′-piperidin]-1′-yl)-N-(2-phenylpropyl)-9H-purine-8-carboxamide]: the IC50 was in the range of 500 to 1500 nM.
